Source: ChEMBL document CHEMBL1140805, “1-Toluene-sulfonyl-3-[(3'-hydroxy-5'-substituted)-gamma-butyrolactone]-indoles: synthesis, COX-2 inhibition and anti-cancer activities” (Bioorg Med Chem Lett, 2008)

Assays:
[1] = target: T1, Prostaglandin G/H synthase 1 (Ovis aries) (UniProt P05979); experiment: Inhibition of ovine COX1 at 10 uM
T1 sequence (whole entry): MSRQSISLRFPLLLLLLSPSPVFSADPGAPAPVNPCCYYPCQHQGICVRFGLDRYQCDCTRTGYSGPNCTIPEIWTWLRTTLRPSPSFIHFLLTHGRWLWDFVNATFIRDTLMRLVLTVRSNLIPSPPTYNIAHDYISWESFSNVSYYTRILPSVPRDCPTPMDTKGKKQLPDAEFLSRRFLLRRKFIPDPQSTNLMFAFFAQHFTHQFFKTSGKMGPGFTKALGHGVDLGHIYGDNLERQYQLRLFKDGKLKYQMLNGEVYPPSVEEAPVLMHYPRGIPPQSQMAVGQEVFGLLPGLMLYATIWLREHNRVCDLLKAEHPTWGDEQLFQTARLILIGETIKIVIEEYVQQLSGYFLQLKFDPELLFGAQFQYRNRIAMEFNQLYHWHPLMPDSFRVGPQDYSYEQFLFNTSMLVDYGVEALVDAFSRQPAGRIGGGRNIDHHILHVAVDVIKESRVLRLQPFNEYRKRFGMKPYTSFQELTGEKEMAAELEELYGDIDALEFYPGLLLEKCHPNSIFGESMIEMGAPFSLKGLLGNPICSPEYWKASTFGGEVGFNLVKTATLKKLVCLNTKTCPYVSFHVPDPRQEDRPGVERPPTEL

Ovis aries = species: Ovis aries; experiment: Selectivity index, Ratio of IC50 for ovine COX2 to IC50 for ovine COX1
[2] = target: T2, Prostaglandin G/H synthase 1 (Ovis aries, UniProt P05979)
T2 sequence (P05979 whole entry): T1 sequence (whole entry)

[3] = Partition coefficient, log P of the compound; assay type: physicochemical; settings: octanol/water

SMILES | inhibition [1] | Ratio IC50 (Ovis aries) | IC50 [2] | logP [3]
Cc1ccc(S(=O)(=O)n2cc([C@@]3(O)C[C@H](CSC#N)OC3=O)c3ccccc32)cc1 | 65% | > 1000 | < 10 µM | 1.78
CS(=O)(=O)c1ccc(C2=C(c3ccccc3)C(=O)OC2)cc1 | 75% | – | – | –
Cc1ccc(S(=O)(=O)n2cc([C@@]3(O)C[C@H](CI)OC3=O)c3ccccc32)cc1 | 40% | – | > 10 µM | 2.49
CCSC[C@H]1C[C@](O)(c2cn(S(=O)(=O)c3ccc(C)cc3)c3ccccc23)C(=O)O1 | 35% | < 1000 | > 10 µM | 2.38
